{"source": "patent US8007994B2", "about": "“Compositions and methods of modulating cholesterol metabolism” (The Board of Regents of the University of Texas System, priority 1998, dated 2011)", "key": {"[1]": {"tested_on": "RXR", "conditions": "cited from earlier work"}, "[2]": {"tested_on": "total lipid absorption", "assay": "Total lipid absorption determined gravimetrically in mice", "assay_type": "in vivo, mouse", "procedure": "Total lipid absorption was determined in the study described above (FIG. 4) to establish whether LG268 effects were specific to cholesterol or were affecting lipid absorption or intestinal integrity. Total lipid absorption was determined gravimetrically (Schwartz et al., 1998) by establishing lipid intake (amount of food consumed over 72 hours×dietary lipid content) and lipid output (fecal lipid content×quantity of stool collected over the same 72 hours) to calculate the fraction of lipid consumed that was absorbed. […] The gravimetric determination of lipid absorption shown in FIG. 5 confirmed these findings. The reduction in lipid absorption seen in these animals can be accounted for by the reduction in cholesterol uptake (cholesterol comprises ˜5% of the lipid in these diets and is extracted and measured as lipid in these analyses). Therefore, the effects of LG268 are specific for cholesterol absorption."}, "[3]": {"tested_on": "liver cholesterol", "assay": "Liver cholesterol in cholesterol-fed Golden Syrian hamsters", "assay_type": "in vivo, Golden Syrian hamster", "conditions": "male hamsters, 0.2% cholesterol diet, 3 or 30 mg/kg body weight, 12 days", "procedure": "(§1) Hamsters provide a better animal model for cholesterol metabolism than mice (however, mice offer the advantage that they can be genetically manipulated, for example the LXRα−/− strain). […] Male Syrian Golden hamsters were fed Teklad 7001 diet supplemented with 0.2% cholesterol and vehicle, LG268 (providing 3 or 30 mg/kg body weight) or 2% surfomer. On day 7, they received a gavage dose of [22,23-3H]b-sitostanol (American Radiolabeled Chemicals, St. Louis, Mo.) and [4-14C]cholesterol (Amersham) for the measurement of cholesterol absorption by the fecal isotope ratio method (Turley et al., 1994). Stools were collected from the individually housed hamsters over the next 72 hours. On day 12 the animals were sacrificed and liver was removed for cholesterol determination by gas chromatography (Turley et al., 1994). […] Therefore the effects of LG268 on cholesterol homeostasis are not limited to mice, but observed in other mammalian species as well."}, "[4]": {"tested_on": "bile acid production", "assay": "Bile acid pool size and fecal bile acid excretion in cholesterol-fed mice", "assay_type": "in vivo, mouse", "conditions": "LXRα +/+ and −/− mice, 2% cholesterol diet, 30 mg/kg oral gavage daily, 7 days", "procedure": "Female, mixed strain (LXRα+/+ and −/−) mice were fed Teklad 7001 2% cholesterol (w/w) diet ad libitum for 7 days. Each day mice received a single bolus dose of LG268 ([…] to provide 30 mg/kg body weight) or vehicle by oral gavage. Mice were killed and liver cholesterol was determined as described in FIG. 1. Small intestine (with luminal contents) and gall bladder were extracted together to determine bile acid pool size and composition as described by Schwartz et al., 1998. Stools were collected over 3 days from the individually housed mice, dried, weighed and ground. Fecal bile acid content was determined by an enzymatic method (Turley et al., 1996)."}, "[5]": {"tested_on": "cholesterol absorption", "assay": "Cholesterol absorption by the fecal isotope ratio method in mice", "assay_type": "in vivo, mouse", "procedure": "Male, A129 strain mice (LXRα+/+ and −/−) were fed Teklad 7001 powdered diet supplemented with 0.2% cholesterol 0.015% LG268 (provides 30 mg/kg body weight), vehicle, or 2% surfomer ad libitum for 10 days. On day 7, mice received a gavage dose of [22,23-3H]b-sitostanol (American Radiolabeled Chemicals, St. Louis, Mo.) and [4-14C]cholesterol (Amersham) for the measurement of cholesterol absorption by the fecal isotope ratio method (Turley et al., 1994). […] In light of the extreme potency of LG268, a dose-response analysis was performed.\n(§2) Male, A129 strain mice were fed Teklad 7001 powdered diet supplemented with 0.2% cholesterol and various levels of LG268 (providing 1.4 to 30 mg/kg body weight) or vehicle ad libitum for 10 days. On day 7, mice received a gavage dose of [22,23-3H]b-sitostanol (American Radiolabeled Chemicals, St. Louis, Mo.) and [4-14C]cholesterol (Amersham) for the measurement of cholesterol absorption by the fecal isotope ratio method (Turley et al., 1994). Liver cholesterol concentration was determined as by gas chromatography.\nas §2, with “cholesterol” for “cholesterol and various levels of”, “or LG721 (to provide 3” for “(providing 1.4 to 30”, “weight)” for “weight) or vehicle”"}, "[6]": {"tested_on": "cholesterol absorption", "assay": "Cholesterol absorption by the fecal isotope ratio method in hamsters", "assay_type": "in vivo, Golden Syrian hamster", "conditions": "male hamsters, 0.2% cholesterol diet, 3 or 30 mg/kg body weight", "procedure": "as §1"}, "[7]": {"tested_on": "ACAT-2 mRNA", "assay": "Northern analysis of duodenal intestine samples, ACAT-2", "assay_type": "in vivo, mouse", "conditions": "duodenum of treated mice, 10 days", "source_text": "(§3) It is known that exogenous cholesterol is taken up in the distal duodenum (and perhaps proximal jejunum) by the intestinal enterocyte, is rapidly esterified (by ACAT) and packaged into chylomicrons for transport into the lymphatic system (reviewed by Homan and Krause, 1997). Recently, caveolin has also been proposed to play a role in cholesterol trafficking in the intestine (Field et al., 1998). Disruption of any of these processes could result in diminished cholesterol absorption capacity. As LG268 is an agonist of the nuclear hormone receptor RXR, it is likely that the primary targets of this drug would be transcriptionally regulated and show a change in the steady state level of mRNA for critical target genes. Northern analyses were performed on duodenal intestine samples obtained in the experiment described in FIG. 4. Results were quantitated using a phosphoimager (Molecular Dynamics), standardized against b-actin controls, and mathematically adjusted to yield 1 unit for the vehicle-treated control group."}, "[8]": {"tested_on": "ACAT-1 mRNA", "assay": "Northern analysis of duodenal intestine samples, ACAT-1", "assay_type": "in vivo, mouse", "conditions": "duodenum of treated mice, 10 days", "source_text": "as §3"}, "[9]": {"tested_on": "ATP-binding cassette protein-1 (ABC-1)", "assay": "Northern analysis of intestinal ABC-1 expression", "assay_type": "in vivo", "conditions": "mouse small intestine, oral 30 mg/kg body weight, as little as 6 hours", "procedure": "The ATP-binding cassette protein-1 is a newly described membrane protein implicated in reverse cholesterol transport, in other words the efflux of cholesterol from peripheral tissues to the liver (Young and Fielding, 1999; Tall, 1998).\nMale A129 strain mice were fed Teklad 7001 powdered diet supplemented with 0.2% cholesterol and 0.015% LG268, equimolar LG721 (see example 12) or vehicle at 7 pm (beginning of dark cycle). Animals were sacrificed at 1 am (6 hour time point) or 7 am (12 hr), the intestine was removed and rinsed with ice-cold phosphate buffered saline, then subdivided into 5 segments of equal length (˜8 cm each, FIG. 10A) or 3 segments (the proximal segment representing the duodenumis depicted in FIG. 10B). Intestinal mucosa was obtained from each segment and poly (A+) RNA isolated for northern analyses. Results were quantified using a phosphorimager, standardized against b-actin controls, and mathematically adjusted to yield 1 unit for the vehicle-treated control group."}, "[10]": {"tested_on": "liver cholesterol", "assay": "Liver cholesterol accumulation in cholesterol-fed LXRα wild-type and knockout mice", "assay_type": "in vivo, mouse", "conditions": "0.2% cholesterol diet, 30 mg/kg body weight in diet, 10 days", "procedure": "Male, A129 strain mice (LXRα+/+ and −/−) were fed Teklad 7001 powdered diet supplemented with 0.2% cholesterol 0.015% LG268 (provides 30 mg/kg body weight), vehicle, or 2% surfomer (a surfactant polymer that inhibits cholesterol absorption, Turley et al., 1991) ad libitum for 10 days. Animals were sacrificed and a liver aliquot was saponified and extracted and the cholesterol content was determined by gas chromatography using stigmastanol as an internal standard (Turley et al., 1994). Liver cholesterol accumulation was prevented by ingestion of LG268 in both LXRα knockout and wild-type mice. The two most likely mechanisms for this effect are (1) increased cholesterol output by enhanced bile acid production and secretion and/or (2) decreased cholesterol input by diminished cholesterol absorption.\nMale, A129 strain mice were fed Teklad 7001 powdered diet supplemented with 0.2% cholesterol and various levels of LG268 (providing 1.4 to 30 mg/kg body weight) or vehicle ad libitum for 10 days. […] Liver cholesterol concentration was determined as by gas chromatography.\nMale, A129 strain mice were fed Teklad 7001 powdered diet supplemented with 0.2% cholesterol LG268 or LG721 (to provide 3 mg/kg body weight) ad libitum for 10 days. […] Liver cholesterol concentration was determined as by gas chromatography."}, "[11]": {"tested_on": "caveolin mRNA", "assay": "Northern analysis of duodenal intestine samples, caveolin", "assay_type": "in vivo, mouse", "conditions": "duodenum of treated mice, 10 days", "source_text": "as §3"}, "[12]": {"tested_on": "cholesterol biosynthesis", "assay": "Rates of sterol synthesis in vivo ([3H]water incorporation)", "set-up": "species or system mouse", "conditions": "mice, 0.2% cholesterol diet, 7 days", "procedure": "Male, A129 mice were fed Teklad 7001 diet supplemented with 0.2% cholesterol and vehicle or LG268 (at 3 or 30 mg/kg body weight) for 7 days ad libitum. Rates of sterol synthesis were measured in vivo as described (Jeske and Dietschy, 1980, Turley et al., 1981) based on the incorporation of [^3H]water into digitonin-precipitable sterols over one hour."}}, "note": "Entries after “also recorded” stand apart in the source; their conditions may differ. Like-named read-outs stand apart in the source and are kept apart here.", "data": [{"smiles": "Cc1cc2c(cc1C1(c3ccc(C(=O)O)cn3)CC1)C(C)(C)CCC2(C)C", "note": "[LG268]", "values": [{"measurement": "RXR binding and activation", "setting": "[1]", "value": "binds and activates RXR"}, {"measurement": "RXR binding and activation", "setting": "[1]; listed as LG100268", "value": "binds and activates all RXR subtypes"}, {"measurement": "binding to other related nuclear receptors", "setting": "[1]; selectivity", "value": "fails to exhibit binding"}, {"measurement": "stool output", "setting": "[2]; wild-type mice receiving LG268 in diet", "value": "normal"}, {"measurement": "general lipid absorption", "setting": "[2]; wild-type mice, 0.2% cholesterol diet, LG268 in diet, 10 days", "value": "not experiencing general lipid malabsorption or steattorhea; also recorded: unaffected"}, {"measurement": "liver cholesterol", "setting": "[3]", "value": "effective in hamsters in reducing liver cholesterol"}, {"measurement": "liver cholesterol accumulation prevented via bile acid production (bile acid pool size and excretion)", "setting": "[4]", "value": "did not prevent the liver accumulation by increasing bile acid production"}, {"measurement": "cholesterol absorption", "setting": "[5]; LXRα +/+ and −/− mice, 0.2% cholesterol diet, 30 mg/kg body weight, 10 days, 30 mg/kg", "value": "completely inhibited; also recorded: total block in cholesterol absorption"}, {"measurement": "inhibition of cholesterol absorption compared with 2% surfomer", "setting": "[5]; mice, LG268 0.015% of diet, dose 130-fold lower than surfomer", "value": "more effective than surfomer"}, {"measurement": "lowest effective dose preventing liver cholesterol accumulation by inhibiting cholesterol absorption", "setting": "[5]; wild-type mice, 0.2% cholesterol diet, doses 1.4 to 30 mg/kg, 10 days", "value": 1.4, "unit": "mg/kg body weight"}, {"measurement": "cholesterol absorption", "setting": "[6]", "value": "inhibiting cholesterol absorption"}, {"measurement": "ACAT-2 mRNA level", "setting": "[7]", "value": "No apparent change"}, {"measurement": "ACAT-1 mRNA level", "setting": "[8]", "value": "No apparent change"}, {"measurement": "ABC-1 expression", "setting": "[9]", "value": "greatly increased"}, {"measurement": "liver cholesterol accumulation", "setting": "[10]", "value": "prevented"}, {"measurement": "caveolin mRNA level", "setting": "[11]", "value": "No apparent change"}, {"measurement": "cholesterol biosynthesis", "setting": "[12]; 3 or 30 mg/kg body weight", "value": "increased cholesterol biosynthesis"}, {"measurement": "sterol synthesis in spleen, kidney and carcass", "setting": "[12]; 3 or 30 mg/kg, dose-dependent", "value": "Increased synthesis"}]}]}
